The values that follow come from PubChem BioAssay (NCI).

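How tested: cells in 96-well plates exposed to compound for 48 hours at five concentrations. TGI: concentration producing complete growth inhibition.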 Some results are limits rather than exact numbers.

Among the test systems are HCT-15 colon; HL-60(TB) leukemia; MDA-MB-231 breast; TK-10 renal; K-562 leukemia; CCRF-CEM leukemia; PC-3 prostate; 786-0 renal; MALME-3M melanoma; LOX IMVI melanoma; NCI-H522 lung.
Common to all, as to experiment: growth of human tumour cells (NCI), 48 h

Regarding `O=C(c1ccccc1)c1ccc2nc(-c3c(Cl)c(Cl)c(Cl)c(Cl)c3C(=O)N/N=C/c3ccccc3)[nH]c2c1`, the TGI was more than 100 µM in the assay with HCT-15 colon; 73 µM with HL-60(TB) leukemia; 79.2 µM in the assay with MDA-MB-231 breast; more than 100 µM in the assay with TK-10 renal; more than 100 µM with K-562 leukemia; more than 100 µM with CCRF-CEM leukemia. Also, the TGI with PC-3 prostate is more than 100 µM; in the assay on 786-0 renal, 73.7 µM; in the assay on MALME-3M melanoma, 83 µM; with LOX IMVI melanoma, more than 100 µM; with NCI-H522 lung, 55.3 µM.

`COC(=O)n1c(=O)n(-c2ccccc2)c(=O)n1C(=O)OC`: the TGI with HCT-15 colon, with HL-60(TB) leukemia, with MDA-MB-231 breast, with TK-10 renal, in the assay with K-562 leukemia and in the assay on CCRF-CEM leukemia was more than 100 µM each time. Also, the TGI in the assay with PC-3 prostate, in the assay with 786-0 renal, in the assay on MALME-3M melanoma, in the assay on LOX IMVI melanoma and in the assay on NCI-H522 lung was more than 100 µM each time.

As to `Nc1ccccc1N/C=C\C(=O)C(Cl)(Cl)Cl`, the TGI was 46.1 µM with HCT-15 colon; 85.3 µM in the assay with HL-60(TB) leukemia; more than 100 µM in the assay on MDA-MB-231 breast; 71.9 µM in the assay with TK-10 renal; 78.9 µM in the assay on K-562 leukemia; more than 100 µM in the assay on CCRF-CEM leukemia. Besides, the TGI was more than 100 µM in the assay with PC-3 prostate; 28.3 µM with 786-0 renal; more than 100 µM in the assay on MALME-3M melanoma; 29.7 µM in the assay on LOX IMVI melanoma; more than 100 µM in the assay on NCI-H522 lung.

As to `CCCNC(C#N)c1ccc(C(C#N)NCCC)cc1` (stereo not drawn), the TGI in the assay on HCT-15 colon, in the assay on HL-60(TB) leukemia, in the assay with MDA-MB-231 breast, with TK-10 renal, with K-562 leukemia and in the assay with CCRF-CEM leukemia was more than 100 µM in each case. The TGI in the assay with PC-3 prostate, in the assay on 786-0 renal, in the assay with MALME-3M melanoma, with LOX IMVI melanoma and with NCI-H522 lung was more than 100 µM throughout.

Take `CN(NC(=O)CCCl)C1=NCCCCN1`: the TGI in the assay with HCT-15 colon, in the assay on HL-60(TB) leukemia, with MDA-MB-231 breast, in the assay with TK-10 renal, with K-562 leukemia and with CCRF-CEM leukemia was more than 100 µM throughout. The TGI in the assay on PC-3 prostate, with 786-0 renal, in the assay on MALME-3M melanoma, in the assay with LOX IMVI melanoma and with NCI-H522 lung was more than 100 µM each time.

For the molecule `COC(=O)/C=C1\CCC(C)(C(=O)NS(=O)(=O)c2ccc(C)cc2)C1(C)C` (stereo not drawn), the TGI in the assay with HCT-15 colon, in the assay on HL-60(TB) leukemia, in the assay with MDA-MB-231 breast, with TK-10 renal, in the assay with K-562 leukemia and with CCRF-CEM leukemia was more than 100 µM in each case. In addition, the TGI in the assay on PC-3 prostate, with 786-0 renal, in the assay on MALME-3M melanoma, in the assay with LOX IMVI melanoma and in the assay with NCI-H522 lung was more than 100 µM each time.

As for `CN(C)Cc1cc(O)c(O)c(CN(C)C)c1`, the TGI with HCT-15 colon was more than 100 µM; in the assay with HL-60(TB) leukemia it was 92 µM; with MDA-MB-231 breast, more than 100 µM; with TK-10 renal, more than 100 µM; in the assay with K-562 leukemia, more than 100 µM; in the assay on CCRF-CEM leukemia it was 61.8 µM. Further, the TGI with PC-3 prostate, in the assay on 786-0 renal, in the assay on MALME-3M melanoma, in the assay with LOX IMVI melanoma and with NCI-H522 lung was more than 100 µM each time.

As to `Oc1ccc(SCc2cc(O)c(O)c(O)c2)cc1`, the TGI in the assay with HCT-15 colon was more than 100 µM; in the assay with HL-60(TB) leukemia, more than 100 µM; in the assay on MDA-MB-231 breast, more than 100 µM; in the assay with TK-10 renal, more than 100 µM; in the assay with K-562 leukemia it was more than 100 µM; with CCRF-CEM leukemia, 74.4 µM. Also, the TGI with PC-3 prostate was more than 100 µM; with 786-0 renal, more than 100 µM; in the assay with MALME-3M melanoma, more than 100 µM; with LOX IMVI melanoma, more than 100 µM; in the assay with NCI-H522 lung, 61.4 µM.

As to `C=CCNC(=O)NC1=CSC2=NC(=O)C3(NN12)c1ccccc1-c1ccccc13`, the TGI in the assay on HCT-15 colon, in the assay on HL-60(TB) leukemia, in the assay with MDA-MB-231 breast, in the assay with TK-10 renal, in the assay on K-562 leukemia and in the assay on CCRF-CEM leukemia was more than 10 µM each time. Moreover, the TGI with PC-3 prostate, with 786-0 renal, in the assay with MALME-3M melanoma, in the assay with LOX IMVI melanoma and with NCI-H522 lung was more than 10 µM each time.

Take `CSC1=C(C#N)C(=O)N(c2ccc(C)cc2)C(=S)C1C#N` (stereo not drawn): the TGI in the assay with HCT-15 colon, in the assay with HL-60(TB) leukemia, in the assay on MDA-MB-231 breast, in the assay with TK-10 renal, in the assay with K-562 leukemia and with CCRF-CEM leukemia was more than 100 µM each time. Also, the TGI in the assay on PC-3 prostate, in the assay on 786-0 renal, in the assay with MALME-3M melanoma, in the assay on LOX IMVI melanoma and in the assay with NCI-H522 lung was more than 100 µM throughout.

Consider `Cc1nc2ccc(S(=O)(=O)O)cc2c(=O)n1-c1ccc(C(=O)NN2C(=O)C(Cl)C2c2ccccc2O)cc1` (stereo not drawn), for which the TGI with HCT-15 colon, in the assay with HL-60(TB) leukemia, in the assay on MDA-MB-231 breast, in the assay on TK-10 renal, in the assay with K-562 leukemia and with CCRF-CEM leukemia was more than 100 µM each time. Moreover, the TGI in the assay with PC-3 prostate, in the assay on 786-0 renal, with MALME-3M melanoma, with LOX IMVI melanoma and with NCI-H522 lung was more than 100 µM each time.

On to `O=C(OCc1ccccc1)C1(N2CN(C3(C(=O)OCc4ccccc4)CCCC3)CN(C3(C(=O)OCc4ccccc4)CCCC3)C2)CCCC1`, for which the TGI with HCT-15 colon, in the assay on HL-60(TB) leukemia, with MDA-MB-231 breast, in the assay on TK-10 renal, with K-562 leukemia and in the assay with CCRF-CEM leukemia was more than 10 µM throughout. The TGI with PC-3 prostate, in the assay on 786-0 renal, with MALME-3M melanoma, with LOX IMVI melanoma and with NCI-H522 lung was more than 10 µM throughout.

With `C=C(CC[C@@H](C(=O)O)[C@H]1[C@H](O)C[C@@]2(C)C3=CC[C@@H](C(=C)C)[C@](C)(CCC(=O)O)C3=CC[C@]12C)C(C)C`, the TGI was 31.4 µM in the assay with HCT-15 colon; 36 µM in the assay on HL-60(TB) leukemia; 40.7 µM with MDA-MB-231 breast; 32.3 µM in the assay on TK-10 renal; more than 100 µM in the assay on K-562 leukemia; more than 100 µM with CCRF-CEM leukemia. The TGI with PC-3 prostate is 34.3 µM; with 786-0 renal, 31.1 µM; in the assay on MALME-3M melanoma, 40.8 µM; in the assay with LOX IMVI melanoma it was 38.4 µM; in the assay on NCI-H522 lung, 38.3 µM.

Turning to `Cc1[nH]c2ccccc2c1C=Nc1ccc(N=Cc2c(C)[nH]c3ccccc23)cc1`, the TGI was more than 100 µM in the assay on HCT-15 colon; 41.8 µM in the assay on HL-60(TB) leukemia; more than 100 µM in the assay with MDA-MB-231 breast; more than 100 µM with TK-10 renal; 47 µM in the assay with K-562 leukemia; 47.6 µM in the assay on CCRF-CEM leukemia. Further, the TGI in the assay with PC-3 prostate was more than 100 µM; in the assay on 786-0 renal it was 35.7 µM; in the assay with MALME-3M melanoma, more than 100 µM; with LOX IMVI melanoma, 36.5 µM; with NCI-H522 lung, 41.9 µM.

Turning to `CC(C)c1ccc(/C=C2\CSCC3=C2NC(=S)NC3c2ccc(C(C)C)cc2)cc1` (stereo not drawn), the TGI with HCT-15 colon, in the assay on HL-60(TB) leukemia, in the assay with MDA-MB-231 breast, in the assay on TK-10 renal, in the assay with K-562 leukemia and in the assay with CCRF-CEM leukemia was more than 100 µM each time. For the same molecule, the TGI in the assay with PC-3 prostate, in the assay with 786-0 renal, in the assay with MALME-3M melanoma, in the assay on LOX IMVI melanoma and in the assay with NCI-H522 lung was more than 100 µM each time.

As to `NC(=O)c1ccc2c(c1)S(=O)(=O)c1ccccc1C2=O`, the TGI with HCT-15 colon, in the assay on HL-60(TB) leukemia, in the assay on MDA-MB-231 breast, with TK-10 renal, with K-562 leukemia and in the assay on CCRF-CEM leukemia was more than 100 µM each time. In addition, the TGI in the assay with PC-3 prostate, with 786-0 renal, in the assay with MALME-3M melanoma, in the assay with LOX IMVI melanoma and in the assay on NCI-H522 lung was more than 100 µM in each case.

As for `CCOc1nc(-c2ccccc2)cc(-c2ccc(N3CCOCC3)cc2)c1C#N`, the TGI in the assay on HCT-15 colon, in the assay on HL-60(TB) leukemia, in the assay on MDA-MB-231 breast, with TK-10 renal, with K-562 leukemia and in the assay on CCRF-CEM leukemia was more than 100 µM each time. For the same molecule, the TGI in the assay on PC-3 prostate, in the assay on 786-0 renal, in the assay on MALME-3M melanoma, with LOX IMVI melanoma and with NCI-H522 lung was more than 100 µM each time.

For `C(=C\c1ccccc1)/C=N/c1nc2cc3sc(/N=C/C=C/c4ccccc4)nc3cc2s1`, the TGI with HCT-15 colon, in the assay on HL-60(TB) leukemia, in the assay on MDA-MB-231 breast, in the assay with TK-10 renal, in the assay on K-562 leukemia and with CCRF-CEM leukemia was more than 100 µM each time. Moreover, the TGI in the assay with PC-3 prostate, with 786-0 renal, in the assay on MALME-3M melanoma, in the assay on LOX IMVI melanoma and in the assay with NCI-H522 lung was more than 100 µM in each case.
